From PMC8025677 (Cell, 2020)
Like-named read-outs stand apart in the source and are kept apart here.

Tests used:
[1] = biological target: iAChSnFR (early version; iAChSnFR0.6 in Figure S2A); conditions: n = 3
hSERT = hSERT (Homo sapiens, UniProt P31645); test: oscillating stimulus transporter assay; type: cell-based
iSeroSnFR = type: binding, Thermoanaerobacter sp. X513; conditions: for Kd: read-out: apparent Kd, pH 7.4
[2] = test system: electrically evoked 5-HT release in dorsal striatum slices; parameters: species or system mouse

hSERT, sequence (P31645 whole entry): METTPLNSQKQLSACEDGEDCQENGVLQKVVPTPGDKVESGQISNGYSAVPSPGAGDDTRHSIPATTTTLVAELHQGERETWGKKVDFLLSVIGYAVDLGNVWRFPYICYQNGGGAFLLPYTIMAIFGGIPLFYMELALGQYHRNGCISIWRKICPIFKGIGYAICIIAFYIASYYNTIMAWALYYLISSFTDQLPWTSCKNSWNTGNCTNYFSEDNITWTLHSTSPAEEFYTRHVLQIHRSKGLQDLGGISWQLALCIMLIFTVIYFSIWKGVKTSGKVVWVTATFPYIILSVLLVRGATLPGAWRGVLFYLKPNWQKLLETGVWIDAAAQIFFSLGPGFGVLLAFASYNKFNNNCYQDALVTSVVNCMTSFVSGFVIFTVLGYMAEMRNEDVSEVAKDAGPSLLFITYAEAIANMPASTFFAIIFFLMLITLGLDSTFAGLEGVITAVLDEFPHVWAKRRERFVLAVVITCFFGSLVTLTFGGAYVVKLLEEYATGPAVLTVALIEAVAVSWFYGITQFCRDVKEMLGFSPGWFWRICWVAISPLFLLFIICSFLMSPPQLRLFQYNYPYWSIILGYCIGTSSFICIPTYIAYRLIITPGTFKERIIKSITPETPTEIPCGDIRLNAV

NCCc1c[nH]c2ccc(O)cc12 [5-HT, serotonin (5-hydroxytryptamine)]
Kd [1]: > 1000 µM

CNC(C)Cc1ccc2c(c1)OCO2 (stereo not shown) [MDMA, 3,4-methyl enedioxy methamphetamine]
enhancement in 5-HT efflux (hSERT): 2 fold

CCCCCCCCCCCCCC(=O)O[C@@H]1[C@@H](C)[C@@]2(O)[C@@H](C=C(CO)C[C@]3(O)C(=O)C(C)=C[C@@H]23)[C@@H]2C(C)(C)[C@]12OC(C)=O [PMA, phorbol 12-myristate 13-acetate]
effect on 5-HT transport rate (hSERT; 400 nM): slow decrement in transport rate over ~40 minutes

COC(=O)[C@H]1[C@@H](OC(=O)c2ccccc2)C[C@@H]2CC[C@H]1N2C [cocaine]
effect on 5-HT transport (hSERT): reduced

NCCc1ccc(O)c(O)c1 [dopamine]
Kd (iSeroSnFR): 5600 µM

NC1=N[C@H](O)[C@H]2[C@H]3O[C@]4(O)O[C@@H]([C@@H](O)[C@@]2(N1)[C@@H]4O)[C@]3(O)CO [tetrodotoxin]
effect on electrically evoked fluorescence transients [2]: completely abolished

NCCc1c[nH]c2ccccc12 [tryptamine]
times weaker affinity than 5-HT (iSeroSnFR; purified iSeroSnFR): 8 times
Kd (iSeroSnFR; purified iSeroSnFR 100 nM): 2400 µM

N#Cc1ccc2[nH]cc(CCCCN3CCN(c4ccc5oc(C(N)=O)cc5c4)CC3)c2c1 [vilazodone]
effect on 5-HT transport (hSERT; concentration not given): caused transport function to rapidly disappear
recovery of transport after washout (hSERT; washouts of >20 minutes): did not return to baseline
